Converted amounts (≈) assume the structure as drawn.
What was measured:
Staphylococcus aureus [1] = assay: Antibacterial activity against Staphylococcus aureus ATCC 29213 measured after 24 hrs by microplate reader analysis; type: functional
Staphylococcus aureus [2] = assay: Antibacterial activity against methicillin-resistant Staphylococcus aureus N315 measured after 24 hrs by microplate reader analysis; type: functional
Staphylococcus aureus [3] = assay: Antibacterial activity against methicillin-resistant Staphylococcus aureus NCTC 10442 measured after 24 hrs by microplate reader analysis; type: functional
[4] = Hemolytic activity in rabbit erythrocytes measured after 1 hr by microplate reader analysis; type: ADME, cell-based, Oryctolagus cuniculus, Erythrocyte
[5] = Solubility of the compound in water; type: physicochemical; conditions: buffer

SMILES | MIC (Staphylococcus aureus [1]) [µg/mL] | MIC (Staphylococcus aureus [2]) [µg/mL] | MIC (Staphylococcus aureus [3]) [µg/mL] | HC50 at 1 h [4] [µg/mL] | solubility [5]
CCCn1c2ccccc2c2c(OCC3CO3)cccc21 (stereo not drawn) | > 50 | > 50 | > 50 | > 200 | 
CCCC[N+](C)(CCCC)CC(O)COc1cccc2c1c1ccccc1n2CC=C(C)C.[I-] (stereo not drawn) | 1.56 | 1.56 | 1.56 | 61.3 | 
CCCN(CCC)CC(O)COc1cccc2c1c1ccccc1n2CC=C(C)C (stereo not drawn) | > 50 | > 50 | > 50 | > 200 | 
CC[N+](C)(CC)CC(O)COc1cccc2c1c1ccccc1n2CC=C(C)C.[I-] (stereo not drawn) | 6.25 | 6.25 | 6.25 | 142 | 
CC(C)=CCn1c2ccccc2c2c(OCC(O)CNC(C)C)cccc21 (stereo not drawn) | 6.25 (≈ 17.1 µM) | 3.12 (≈ 8.53 µM) | 3.12 (≈ 8.53 µM) | 160 | 
Cn1c2ccccc2c2c(OCC3CO3)cccc21 (stereo not drawn) | > 50 | > 50 | > 50 | > 200 | 
CN(C)CC(O)COc1cccc2c1c1ccccc1n2C (stereo not drawn) | > 50 | > 50 | > 50 | > 200 | 
CCCNCC(O)COc1cccc2c1c1ccccc1n2CC=C(C)C (stereo not drawn) | 6.25 (≈ 17.1 µM) | 3.12 (≈ 8.53 µM) | 6.25 (≈ 17.1 µM) | > 200 | 
CCCCCNCC(O)COc1cccc2c1c1ccccc1n2CC=C(C)C (stereo not drawn) | 12.5 (≈ 31.7 µM) | 6.25 (≈ 15.8 µM) | 12.5 (≈ 31.7 µM) | > 200 | 
CCCCCn1c2ccccc2c2c(OCC(O)CN(C)C)cccc21 (stereo not drawn) | 12.5 (≈ 35.3 µM) | 6.25 (≈ 17.6 µM) | 6.25 (≈ 17.6 µM) | 152 | 
CC(C)=CCn1c2ccccc2c2c(OCC(O)CN3CCCCC3)cccc21 (stereo not drawn) | 6.25 (≈ 15.9 µM) | 3.12 (≈ 7.96 µM) | 3.12 (≈ 7.96 µM) | 81.8 | 
CCCCCCCCNCC(O)COc1cccc2c1c1ccccc1n2CC=C(C)C (stereo not drawn) | 6.25 (≈ 14.3 µM) | 1.56 (≈ 3.57 µM) | 1.56 (≈ 3.57 µM) | > 200 | Insoluble
CCCCN(CCCC)CC(O)COc1cccc2c1c1ccccc1n2CC=C(C)C (stereo not drawn) | > 50 | > 50 | > 50 | > 200 | 
NCC(O)COc1cccc2[nH]c3ccccc3c12 (stereo not drawn) | > 50 | > 50 | > 50 | > 200 | 
CC(C)=CCn1c2ccccc2c2c(OCC(O)CN(CCO)CCO)cccc21 (stereo not drawn) | 25 (≈ 60.6 µM) | 25 (≈ 60.6 µM) | 25 (≈ 60.6 µM) | 126 | 
CCCCCCCn1c2ccccc2c2c(OCC3CO3)cccc21 (stereo not drawn) | > 50 | > 50 | > 50 | > 200 | 
CC(C)=CCn1c2ccccc2c2c(OCC3CO3)cccc21 (stereo not drawn) | > 50 | > 50 | > 50 | > 200 | 

SMILES | MIC (Staphylococcus aureus [1]) [µg/mL] | MIC (Staphylococcus aureus [2]) [µg/mL] | MIC (Staphylococcus aureus [3]) [µg/mL] | HC50 at 1 h [4] [µg/mL] | solubility [5]
CCCn1c2ccccc2c2c(OCC(O)CN(C)C)cccc21 (stereo not drawn) | 50 (≈ 153 µM) | 50 (≈ 153 µM) | 50 (≈ 153 µM) | > 200 | 
c1ccc2c(c1)[nH]c1cccc(OCC3CO3)c12 (stereo not drawn) | > 50 | > 50 | > 50 | > 200 | 
CC(C)=CCn1c2ccccc2c2c(OCC(O)CN3CCN(C)CC3)cccc21 (stereo not drawn) | 12.5 (≈ 30.7 µM) | 12.5 (≈ 30.7 µM) | 12.5 (≈ 30.7 µM) | 70 | 
CC(C)=CCn1c2ccccc2c2c(OCC(O)CN(C)C)cccc21 (stereo not drawn) | 6.25 (≈ 17.7 µM) | 3.12 (≈ 8.87 µM) | 3.12 (≈ 8.87 µM) | 119 | 
CC(C)=CCn1c2ccccc2c2c(OCC(O)CN3CCCC3)cccc21 (stereo not drawn) | 12.5 (≈ 33 µM) | 6.25 (≈ 16.5 µM) | 6.25 (≈ 16.5 µM) | 76.2 | 
CCNCC(O)COc1cccc2c1c1ccccc1n2CC=C(C)C (stereo not drawn) | 6.25 (≈ 17.7 µM) | 3.12 (≈ 8.87 µM) | 6.25 (≈ 17.7 µM) | 156 | 
CCCCCCCCCCNCC(O)COc1cccc2c1c1ccccc1n2CC=C(C)C (stereo not drawn) | 6.25 (≈ 13.4 µM) | 1.56 (≈ 3.36 µM) | 3.12 (≈ 6.72 µM) | > 200 | Insoluble
CCCCCCCCCn1c2ccccc2c2c(OCC3CO3)cccc21 (stereo not drawn) | > 50 | > 50 | > 50 | > 200 | 
CC(C)NCC(O)COc1cccc2[nH]c3ccccc3c12 (stereo not drawn) [CARAZOLOL] | > 50 | > 50 | > 50 | > 200 | 
CCCCCn1c2ccccc2c2c(OCC3CO3)cccc21 (stereo not drawn) | > 50 | > 50 | > 50 | > 200 | 
CCCCCCCCCn1c2ccccc2c2c(OCC(O)CN(C)C)cccc21 (stereo not drawn) | 12.5 (≈ 30.4 µM) | 6.25 (≈ 15.2 µM) | 6.25 (≈ 15.2 µM) | 128 | 
CCCCCCCn1c2ccccc2c2c(OCC(O)CN(C)C)cccc21 (stereo not drawn) | 6.25 (≈ 16.3 µM) | 12.5 (≈ 32.7 µM) | 12.5 (≈ 32.7 µM) | 182 | 
N=C(N)NCC(O)COc1cccc2[nH]c3ccccc3c12 (stereo not drawn) | 50 (≈ 168 µM) | 50 (≈ 168 µM) | 50 (≈ 168 µM) | > 200 | 
CN(C)CC(O)COc1cccc2[nH]c3ccccc3c12 (stereo not drawn) | > 50 | > 50 | > 50 | > 200 | 
CC(C)=CCn1c2ccccc2c2c(OCC(O)CN)cccc21 (stereo not drawn) | 12.5 (≈ 38.5 µM) | 6.25 (≈ 19.3 µM) | 6.25 (≈ 19.3 µM) | > 200 | 
CCN(CC)CC(O)COc1cccc2c1c1ccccc1n2CC=C(C)C (stereo not drawn) | 12.5 (≈ 32.8 µM) | 12.5 (≈ 32.8 µM) | 12.5 (≈ 32.8 µM) | 88.7 | 
CC(C)=CCn1c2ccccc2c2c(OCC(O)CN3CCSCC3)cccc21 (stereo not drawn) | > 50 | > 50 | > 50 | > 200 | 
